Experimental data published in publication PMC12627627 (Nature Communications, 2025).
Where “and” joins values, the source holds several entries; their conditions need not be identical. Equal values may be shown once.

How the values were obtained:
[1] = target: T1, RyR1 R2163C (Oryctolagus cuniculus, UniProt P11716, R2163C); assay: Time-lapse [Ca2+]ER measurement, HEK293 cells expressing RyR1 R2163C; type: cell-based; conditions: for IC50: HEK293 cells stably expressing RyR1 R2163C, ER Ca2+ fluorescence, dose-dependent
T1 construct: expressed in transfected cells
Procedure: HEK293 cells stably expressing R-CEPIA1er and RyRs (WT RyR1, RyR1-W881A, RyR1-W995A, RyR1-R2163C, and WT RyR2)[26],[27] were used in this study. Briefly, the cells were seeded at a density of 2 × 10⁴ cells/well in a 96-well black, clear-bottom plate (Corning). Doxycycline (2 µg/mL) was added 12 h after seeding, and the medium was replaced 24 h later with HEPES-buffered Krebs solution (5 mM HEPES, pH 7.4; 140 mM NaCl; 5 mM KCl; 2 mM CaCl₂; 1 mM MgCl₂; and 11 mM glucose). Fluorescence measurements were conducted using a FlexStation 3 fluorometer (Molecular Devices) at 37 °C. The R-CEPIA1er was excited at 560 nm, emitted at 610 nm, and captured every 10 seconds over 300 seconds. […] The fluorescence changes (F/F₀) were calculated by dividing the average fluorescence of the last 100 seconds (F) by that of the first 100 seconds (F₀). All measurements were performed in triplicate.

[2] = target: T2, R12 domain of RyR2 (Homo sapiens, UniProt Q92736); assay: ITC, R12 domain of RyR2; type: binding; conditions: absence or presence of AMP-PCP or ADP
T2 construct: RyR1 854–1054, RyR2 865–1065, RyR3 853–1053; made in house; host or cells: E. coli BL21 (DE3)
T2 sequence (Q92736 865-1065): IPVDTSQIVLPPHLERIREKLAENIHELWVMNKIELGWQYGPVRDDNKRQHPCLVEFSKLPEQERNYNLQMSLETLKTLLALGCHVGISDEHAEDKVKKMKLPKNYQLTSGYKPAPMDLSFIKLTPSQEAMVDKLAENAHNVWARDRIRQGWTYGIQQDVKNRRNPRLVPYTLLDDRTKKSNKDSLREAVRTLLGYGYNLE
Procedure: (§1) The plasmids were subsequently transformed into E. coli BL21 (DE3) cells (NEB, USA) and cultured in Luria-Bertani (LB) media at 37 °C. Protein expression was induced with 0.4 mM isopropyl β-D-thiogalactoside (IPTG) when the optical density (OD)600 reached ~0.8, followed by incubation at 18 °C for 12 h. The cells were harvested via centrifugation at 5,000 × g for 15 min at 4 °C and homogenized in Buffer A (10 mM HEPES, pH 7.4, 250 mM KCl) supplemented with 25 µg/mL DNaseI, 25 µg/mL lysozyme, 1 mM phenylmethylsulfonyl fluoride (PMSF), and 20 mM imidazole. The homogenate was centrifuged at 12,000 × g for 45 min, and the supernatant was filtered through a syringe filter (0.22 µm).
(§2) Purified R12 domain protein from the three RyR isoforms, fused with hexahistidine-tagged MBP (HMT-R12) was dialyzed overnight at 4 °C in ITC buffer (200 mM HEPES, pH 7.4, 150 mM KCl). ITC experiments were performed using a PEAQ-ITC instrument (Malvern, UK) at 25 °C with a stirring speed of 750 rpm. […] For the ternary binding experiments, 500 μM or 5 mM AMP-PCP/ADP was preincubated with both the titrants and titrates. […] The data was fit to a one-site fitting model after background buffer subtraction. The RyR1 R12 mutants were generated using a QuikChange mutagenesis kit (Stratagene) according to the manufacturer’s protocol, with primer sequences listed in Supplementary Table 3.

[3] = target: T3, RyR1-W881A R12 (Homo sapiens, UniProt P21817, W881A); assay: ITC, RyR1 R12 W881A; type: binding; conditions: RyR1-W881A R12, no nucleotide
T3 construct: RyR1 854–1054, RyR2 865–1065, RyR3 853–1053; made in house; host or cells: E. coli BL21 (DE3)
T3 sequence (P21817 854-1054 W881A): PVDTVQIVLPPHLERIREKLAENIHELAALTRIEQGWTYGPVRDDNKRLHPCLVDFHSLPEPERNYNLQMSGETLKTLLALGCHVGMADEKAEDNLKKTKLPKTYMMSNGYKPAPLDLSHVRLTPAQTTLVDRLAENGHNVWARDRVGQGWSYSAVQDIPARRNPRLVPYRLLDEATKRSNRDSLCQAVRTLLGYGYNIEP
Procedure: as §1, §2

[4] = target: T4, R12 domain of RyR3 (Homo sapiens, UniProt Q15413); assay: ITC, R12 domain of RyR3; type: binding
T4 construct: RyR1 854–1054, RyR2 865–1065, RyR3 853–1053; made in house; host or cells: E. coli BL21 (DE3)
T4 sequence (Q15413 853-1053): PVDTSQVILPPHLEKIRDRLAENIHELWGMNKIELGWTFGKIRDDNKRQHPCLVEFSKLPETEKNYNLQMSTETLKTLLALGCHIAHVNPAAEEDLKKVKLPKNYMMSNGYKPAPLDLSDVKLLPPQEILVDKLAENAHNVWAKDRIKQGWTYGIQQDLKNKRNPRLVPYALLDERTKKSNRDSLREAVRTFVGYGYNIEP
Procedure: as §1, §2

[5] = RyR3 R12, no nucleotide, ITC 25 °C

Structure (SMILES)	IC50 [1]	binding to RyR2 R12 domain by ITC [2]	Kd [3]	No of Sites (N) [3]	ΔH [3]	−TΔS [3]	Kd ([4]; RyR3 R12 + 500 µM ADP)	No of Sites (N) ([4]; RyR3 R12 + 500 µM ADP)	ΔH ([4]; RyR3 R12 + 500 µM ADP)	−TΔS ([4]; RyR3 R12 + 500 µM ADP)	Kd ([4]; RyR3 R12 + 500 µM AMP-PCP)	No of Sites (N) ([4]; RyR3 R12 + 500 µM AMP-PCP)	ΔH ([4]; RyR3 R12 + 500 µM AMP-PCP)	−TΔS ([4]; RyR3 R12 + 500 µM AMP-PCP)	Kd ([4]; RyR3 R12 + 5 mM ADP)	No of Sites (N) ([4]; RyR3 R12 + 5 mM ADP)	ΔH ([4]; RyR3 R12 + 5 mM ADP)	−TΔS ([4]; RyR3 R12 + 5 mM ADP)	Kd ([4]; RyR3 R12 + 5 mM AMP-PCP)	No of Sites (N) ([4]; RyR3 R12 + 5 mM AMP-PCP)	other results
O=C1CN(/N=C/c2ncc(-c3ccc(Br)cc3)o2)C(=O)N1 [AZU, Azumolene]	0.41 µM	neither DAN nor AZU exhibited detectable binding	358 ± 138 µM	1.04 ± 0.35	-35.60 kcal/mol	30.90 kcal/mol	0.362 ± 0.086 µM	0.613 ± 0.82	-6.16 ± 0.15 kcal/mol	-2.63 kcal/mol	0.111 ± 0.025 µM	0.760 ± 0.45	-7.90 ± 0.11 kcal/mol	-1.59 kcal/mol	0.052 ± 0.013 µM	0.813 ± 0.48	-7.35 ± 0.11 kcal/mol	-2.59 kcal/mol	0.048 ± 0.021 µM	0.854 ± 0.21	ER luminal [Ca2+] change (F/F0) ([1]; Fig. 1B source data, concentration 0.001 (unit not given), single replicates): 0.9854 and 0.9883 and 0.9973; ER luminal [Ca2+] change (F/F0) ([1]; Fig. 1B source data, concentration 0.01 (unit not given), single replicates): 0.9658 and 0.9819 and 0.982; ER luminal [Ca2+] change (F/F0) ([1]; Fig. 1B source data, concentration 0.05 (unit not given), single replicates): 1.099 and 1.026 and 0.9992; ER luminal [Ca2+] change (F/F0) ([1]; Fig. 1B source data, concentration 0.1 (unit not given), single replicates): 1.103 and 1.117 and 1.012; ER luminal [Ca2+] change (F/F0) ([1]; Fig. 1B source data, concentration 0.5 (unit not given), single replicates): 1.22 and 1.241 and 1.23; ER luminal [Ca2+] change (F/F0) ([1]; Fig. 1B source data, concentration 1 (unit not given), single replicates): 1.3399 and 1.372 and 1.356; ER luminal [Ca2+] change (F/F0) ([1]; Fig. 1B source data, concentration 5 (unit not given), single replicates): 1.6271 and 1.651 and 1.748; ER luminal [Ca2+] change (F/F0) ([1]; Fig. 1B source data, concentration 10 (unit not given), single replicates): 1.557 and 1.7194 and 1.724; ER luminal [Ca2+] change (F/F0) ([1]; Fig. 1B source data, concentration 50 (unit not given), single replicates): 1.618 and 1.707 and 1.756; ER luminal [Ca2+] change (F/F0) ([1]; Fig. 1B source data, concentration 100 (unit not given), single replicates): 1.541 and 1.665 and 1.689; ΔH ([4]; RyR3 R12 + 5 mM AMP-PCP): -7.80 ± 0.15 kcal/mol; −TΔS ([4]; RyR3 R12 + 5 mM AMP-PCP): -2.18 kcal/mol; No of Sites (N) ([4]; RyR3 R12, no nucleotide): 1.02 ± 0.41; ΔH ([4]; RyR3 R12, no nucleotide): -80 kcal/mol; −TΔS ([4]; RyR3 R12, no nucleotide): 75.40 kcal/mol; Kd [4, 5]: 394 ± 7.05 µM
O=C(C[C@@H](NCCCO)C(=O)O)Nc1ccc2ccccc2c1 [RI-2]	28 µM	no detectable binding	292 ± 22.5 µM	0.94 ± 0.46	-10.7 ± 3.83 kcal/mol	4.71 kcal/mol	28.6 ± 18.7 µM	0.509 ± 0.54	-6.40 ± 1.66 kcal/mol	-0.27 kcal/mol	7.85 ± 2.69 µM	0.604 ± 0.31	-3.25 ± 0.40 kcal/mol	-3.72 kcal/mol	12.9 ± 6.2 µM	0.694 ± 0.42	-11.9 ± 4.87 kcal/mol	5.75 kcal/mol	3.39 ± 0.83 µM	0.508 ± 0.21	[Ca2+]ER change (F/F0) ([1]; 100 µM compound, compared with 2.5% DMSO, Fig. S10 source data, single replicates): 1.393 and 1.514 and 1.475; ER luminal [Ca2+] change (F/F0) ([1]; Fig. 5D source data, RyR1-R2163C, RI-2 0.1 uM, single replicates): 0.9503 and 1.0903 and 0.9717; ER luminal [Ca2+] change (F/F0) ([1]; Fig. 5D source data, RyR1-R2163C, RI-2 0.5 uM, single replicates): 0.9981 and 0.9736 and 1.043; ER luminal [Ca2+] change (F/F0) ([1]; Fig. 5D source data, RyR1-R2163C, RI-2 1 uM, single replicates): 1.073 and 0.9956 and 0.9903; ER luminal [Ca2+] change (F/F0) ([1]; Fig. 5D source data, RyR1-R2163C, RI-2 5 uM, single replicates): 1.035 and 0.9806 and 0.9738; ER luminal [Ca2+] change (F/F0) ([1]; Fig. 5D source data, RyR1-R2163C, RI-2 10 uM, single replicates): 1.082 and 1.203 and 1.117; ER luminal [Ca2+] change (F/F0) ([1]; Fig. 5D source data, RyR1-R2163C, RI-2 25 uM, single replicates): 1.365 and 1.221 and 1.3399; ER luminal [Ca2+] change (F/F0) ([1]; Fig. 5D source data, RyR1-R2163C, RI-2 50 uM, single replicates): 1.514 and 1.709 and 1.462; ER luminal [Ca2+] change (F/F0) ([1]; Fig. 5D source data, RyR1-R2163C, RI-2 75 uM, single replicates): 1.641 and 1.709 and 1.614; ER luminal [Ca2+] change (F/F0) ([1]; Fig. 5D source data, RyR1-R2163C, RI-2 100 uM, single replicates): 1.752 and 1.723 and 1.637; ΔH ([4]; RyR3 R12 + 5 mM AMP-PCP): -4.58 ± 0.28 kcal/mol; −TΔS ([4]; RyR3 R12 + 5 mM AMP-PCP): -2.89 kcal/mol; No of Sites (N) ([4]; RyR3 R12, no nucleotide): 0.970 ± 0.19; ΔH ([4]; RyR3 R12, no nucleotide): -16.2 ± 16.70 kcal/mol; −TΔS ([4]; RyR3 R12, no nucleotide): 10.6 kcal/mol; Kd [4, 5]: 178 ± 93.1 µM
